Data on one compound can be found in US20260158149A1, “GLYCOSYLATED PRODRUGS” (UNIVERSITEIT LEIDEN, priority 2021, published 2026).

Data set [1] relates to neutrophils migrated to the wounded area. Description: Tail fin amputation assay: neutrophil migration to the wounded area. It is filed as in vivo, Zebrafish (Danio rerio). Here is the method: Zebrafish (Danio rerio) were maintained and handled according to the guidelines from the Zebrafish Model Organism Database (https://zfin.org/) and in compliance with the directives of the local animal welfare committee of Leiden University. To maintain circadian rhythmicity, adult fish were exposed to a 14 h light and 10 h dark cycle. Fertilization was performed by natural spawning at the beginning of the light period. Fertilized eggs were collected and raised at 28° C. in egg water (60 μg/ml Instant Ocean sea salts and 0.0025% methylene blue). The following zebrafish lines were used in this study: AB/TL wild type, the transgenic lines Tg(mpx:GFP^i114/mpeg1:mCherry^umsF001) (Bernut et al., (2014). Mycobacterium abscessus cording prevents phagocytosis and promotes abscess formation. Proc Natl Acad Sci USA 111, E943-952; Renshaw et al., (2006). A transgenic zebrafish model of neutrophilic inflammation. Blood 108, 3976-3978), and Tg(9xGCRE-HSV.UI123:EGFP)^ia20 (Benato et al., (2014). A living biosensor model to dynamically trace glucocorticoid transcriptional activity during development and adult life in zebrafish. Mol Cell Endocrinol 392, 60-72), and the mutant lines gba2^−/− (Lelieveld et al., (2019). Role of beta-glucosidase 2 in aberrant glycosphingolipid metabolism: model of glucocerebrosidase deficiency in zebrafish. J Lipid Res 60, 1851-1867) and gr^s357 (Ziv et al., (2013). An affective disorder in zebrafish with mutation of the glucocorticoid receptor. Mol Psychiatry 18, 681-691).
For the tail fin amputation experiments, 3 days post fertilization (dpf) larvae from the Tg(mpx:GFP^i114/mpeg1:mCherry^umsF001) line were anesthetized in 0.02% buffered aminobenzoic acid ethyl ester (tricaine) in egg water and placed on a 2% agarose-coated petri dish. The tails were partially amputated with a 1 mm sapphire blade (World Precision Instruments) under a Leica M165C stereomicroscope (Leica Microsystems, Wetzlar, Germany). Chemical treatment (or 0.1% DMSO as vehicle treatment) was started at 2 h before the amputation (pretreatment) and was continued for 4 h after the tail fin amputation (20 larvae per group, unless indicated otherwise), at which time point the larvae were fixed in 4% paraformaldehyde (PFA) overnight at 4° C. and stored at 4° C. until further examination. In some experiments, a 24 h treatment with miglustat, ME656 or MZ31 was started at 2 dpf, and these treatments were continued during the pretreatment and treatment with the other chemicals. For imaging of larvae from the Tg(mpx:GFP^i114/mpeg1:mCherry^umsF001) line, a LeicaMZ16FA fluorescence stereomicroscope with LAS 3.7 software was used. Neutrophils were detected by GFP fluorescence and macrophages by mCherry fluorescence. The neutrophil numbers were determined by blinded manual counting in a pre-determined area. When larvae from gba2^−/− or gr^s357mutant lines were used, neutrophil labeling was performed with the TSA fluorescein detection kit (PerkinElmer) for specific staining of Myeloperoxidase (Mpx)-positive cells, following the manufacturer's instructions.

In a further data set the test system is regenerated tail fin. Kind of data set: Regeneration of the tail fin after wounding. It is filed as in vivo, Zebrafish (Danio rerio). Conditions: 5 dpf larvae, wounded at 2 dpf. Here is the method: When the regeneration of the tail fins after wounding or the larval body length was used as a readout, chemical treatments of the embryos were started at 2 hours post fertilization (hpf) and continued until 5 dpf. During this period, solutions were refreshed daily. At 5 dpf, larvae were imaged using a LeicaMZ16FA fluorescence stereomicroscope supported by LAS 3.7 software, and the length of the larvae was measured using ImageJ software (15 larvae per treatment group). For the regeneration experiments, tail fins were amputated at 2 dpf and larvae were imaged at 5 dpf (15 larvae per treatment group). The newly grown tissue can be distinguished from the old tissue, enabling precise measurement of the size of the newly grown tissue using ImageJ software.

The subject of data set [2] is Gr target genes fkbp5, pck1 and nfkbiaa. Kind of data set: qPCR of Gr target genes fkbp5, pck1, nfkbiaa. It is filed as in vivo, Zebrafish (Danio rerio). Here is the method:
For experiments in zebrafish, gene expression was measured using 3 dpf embryos. Groups of 15 larvae were collected in TRIzol reagent (Invitrogen) and mRNA was isolated using the miRNeasy mini kit (Qiagen), according to the manufacturer's instructions. For experiments in HeLa cells, samples were collected from a single well from 6 well plates (80% confluent) in TRIzol reagent and mRNA was isolated using the RNeasy mini kit. Zebrafish and cells samples were treated with DNAse utilizing the DNA-Free™ kit (Ambion). The cDNA synthesis was performed using iScript cDNA synthesis kit (Bio-Rad) using 1 μg of RNA per sample. For qPCR, 10 μM of forward and 10 μM of reverse primer, 12.5 μL of iQ SYBR Green Supermix (Bio-Rad), and 2 μL of cDNA were added to the qPCR reaction mixture. […] The qPCR reactions were performed on a MyiQ-single-color real-time PCR detection system (Bio-Rad) with initial denaturation for 3 min at 95° C. and 40 cycles of 15 s at 95.5° C., 15 s at 60° C., and 30 s at 72° C. Cycle threshold values (Ct values, i.e. the cycle numbers at which a threshold value of the fluorescence intensity was reached) were determined for each sample. The gene expression level for each sample was normalized using the expression of ppial (peptidylprolyl isomerase Ab (cyclophilin A)) for zebrafish samples, and 18S rRNA for human cells. The fold change per sample (compared to the respective control group) was calculated using the ΔΔCt method.
For orientation: Real-time PCR tracks product formation cycle by cycle.

For a further data set, the system named is IL-6. Kind of data set: CAIA model: serum IL-6 by ELISA. It counts as in vivo, mouse. The protocol:
All mice received 1.5 mg of a CAIA-cocktail (Chondrex) intravenously on day 1, followed by intraperitoneal (i.p.) injection of 50 μg LPS (Chondrex) on day 4. Mice were randomly divided into six groups. […] Scores were assigned blinded. […] The blood collection on day 14 was performed after 6 h fasting. On day 15, mice were sacrificed using carbon dioxide, and tissue samples were collected that were immediately frozen in liquid nitrogen. Applied humane endpoints were a total body weight loss of >20% in comparison to the day of LPS treatment or reaching an arthritis score of 45.
IL-6 concentrations were determined by ELISA in the serum collected at days 10 and 15, using the IL-6 mouse ELISA kit (Invitrogen), following the manufacturer's protocol. The insulin concentration was determined in serum collected at day 14, using the Ultra-sensitive mouse insulin ELISA kit (Crystal Chem), following the manufacturer's protocol. Corticosterone concentrations were determined in serum collected at day 15, using the Corticosterone HS (high sensitivity) enzyme immunoassay kit (Immunodiagnostic Systems), following the manufacturer's protocol. Expression levels of various GR target genes were determined by qPCR in the tissue samples (homogenized in TRIzol Reagent (ThermoFisher)) collected at day 15.

A short description of data set [3]: Whole-body cortisol measurement using ELISA.
Experimental: Zebrafish embryos at 2 hpf received a chemical treatment, as indicated, with daily refreshment of the solutions, until 96 hpf. Then, the treatments were stopped and embryos were incubated in egg water until 5 dpf to avoid cross-reactivity with the compounds of the cortisol antibody used in the ELISA. Then, the treatments were stopped and replaced with egg water. At 5 dpf, the larvae were collected in an Eppendorf tube and 100 μL of ice-cold phosphate-buffered saline (PBS) was added. The larvae were homogenized using a BulletBlender® for 3 min at 8,000 rpm. Ethyl acetate was added to the homogenate and the supernatant was gathered and vaporized. A volume of 150 μl of 0.2% Bovine serum albumin (Sigma Aldrich) dissolved in phosphate-buffered saline (PBS) was added to the samples and frozen. Whole-body cortisol of the zebrafish larvae was determined by ELISA (Demeditec Diagnostics GmbH, Kiel-Wellsee, Germany), following the manufacturer's instructions. In each experiment, three biological replicates were used for each treatment group, and the colorimetric assay was performed using technical duplicates.

In the case of `C[C@]12C=CC(=O)C=C1CC[C@@H]1[C@@H]2[C@@H](O)C[C@@]2(C)[C@H]1CC[C@]2(O)C(=O)CO[C@@H]1O[C@H](CO[C@@H]2O[C@H](CO)[C@@H](O)[C@H](O)[C@H]2O)[C@@H](O)[C@H](O)[C@H]1O` [GbPdn, 21-O-Gentobiose-Prednisolone], in data set [1] (GBA2 inhibitor MZ31), the “reduction in neutrophil migration in the presence of MZ31” value is on record as “abolished by MZ31”. The “migration of neutrophils towards the wounded area” value in data set [1] (wild type larvae, 4 h after tail wounding) is “decrease in the migration of neutrophils”. Further, the “tissue regeneration (length of regenerated tail fin)” value in the data set with regenerated tail fin is “small effect”. In the data set on regenerated tail fin (GBA2 inhibitor MZ31), the “tissue regeneration with MZ31” value is recorded as “dependent on Gba2 activity”. In addition, in data set [2], the “expression of Gr target genes fkbp5, pck1 and nfkbiaa” value is recorded as “lack of effect”. The “serum IL-6 level compared to other treated groups” value in the data set with IL-6 (day 10, 12.5 mg/kg) was “slightly higher IL-6 concentration compared to the other groups”. Further, in the data set on IL-6 (day 10, all treatment groups), the “serum IL-6 level compared to the vehicle group” value is “significant reduction of the IL-6 level”. For the same compound, the “serum IL-6 level” value in the data set with IL-6 (day 15, 12.5 mg/kg) is given as “a very low level was detected in two (out of four) mice”; in the data set on IL-6 (day 15, all groups except 12.5 mg/kg GbPdn), “undetectable”. Moreover, in data set [3] (5 dpf larvae treated from 2 hpf, non-wounded), the “whole body cortisol level” value is on record as “did not affect the glucose or cortisol concentration”. Further, in data set [3] (5 dpf larvae, wounded at 2 dpf), the “whole body cortisol level under wounding conditions” value is “decrease in cortisol concentration”.
